Reference: US20130261137A1, “Methods, Compounds and Compositions Relating to Activating a Latent Virus” (ULC BUSINESS PLC, priority 2010, published 2013)

Tests used:
[1] = system: JSC-1 cells; assay: Cell viability assay (CellTiter-Glo); conditions: for GCV cytotoxicity after pre-treatment with compound: pre-treatment 24 h (UCLB-15026 800 nM, taxol 80 nM), then GCV 20 or 100 μM, 48 and 72 h
[2] = system: KSHV RTA in JSC-1 cells; format: cell-based
[3] = system: HIV-1 LTR in J-Lat A72 cells; assay: HIV-1 LTR assay, GFP expression in J-LAT A72 cells; conditions: for HIV-1 LTR induction by other antimicrotubule agents: taxol 0.8 μM, vinblastine 0.8 μM, ERK dependent (U0126); for reduction of HIV LTR induction by 15026 compared to DMSO control: 15026 0.8 μM
[4] = system: KSHV RTA in JSC-1 PYFP cells
[5] = system: JSC-1 PYFP cells; conditions: U0126 10 μM, 40 h
[6] = system: HIV-1 LTR in U1 cells; assay: HIV-1 LTR induction assay, TAR RNA qPCR in U1 cells; conditions: 15026 4 μM
[7] = system: HIV-1 LTR in ACH2 cells; assay: HIV-1 LTR induction assay, TAR RNA qPCR in ACH2 cells; conditions: 15026 4 μM
[8] = system: tubulin; conditions: reported, reference 21; read-out: IC50 inhibiting tubulin polymerization; cited from earlier work
[9] = system: cells (cell cycle); conditions: reported for the compound; cited from earlier work
[10] = system: microtubule network in JSC-1 cells; assay: Confocal immunofluorescence microscopy of microtubule network; format: cell-based; conditions: 100 μM, 16 h
Procedure: JSC-1 cells were grown on coverslips coated with […] (Sigma) with DMSO or UCLB-15026 (100 μM) for 16 h. JSC-1 cells were then fixed in 3% paraformaldehyde, rinsed and permeabilized in 0.02% Triton-PBS. This was followed by blocking in 2% FCS-PBS, staining with anti-tubulin antibody (Sigma), washed, and then incubated with Alexa-488 conjugated goat anti-mouse secondary antibody (Molecular Probes) before being mounted onto slides using VectaShield mounting medium containing DAPI. Images were taken using confocal microscope (Leica).

[11] = system: HIV-1 LTR in PBMCs from HIV-1 positive individuals; assay: Ex vivo HIV-1 LTR induction assay, TAR RNA qPCR in PBMCs from HIV-1 positive individuals; format: cell-based; conditions: 100 μM, 24 h
[12] = system: KSHV ORF 29 in JSC-1 cells; assay: Semi-quantitative RT-PCR of KSHV late gene ORF 29 in JSC-1; format: cell-based; conditions: different concentrations
Description: Briefly, RNA was extracted from 2×10^6 cells with TRIzol (Invitrogen) and treated with DNase (Ambion), followed by phenol extraction and ethanol precipitation. Serial dilution (3×10-fold) of oligonucleotide dT (Qiagen)-primed cDNA was used for PCR amplification (Promega) of KSHV ORF 29 using forward ([…]; SEQ ID NO. 1) and reverse ([…]; SEQ ID NO. 2) primers. All samples were normalized by PCR amplification of beta-2 microglobulin (β2M) using serially diluted cDNA with forward ([…]; SEQ ID NO. 3) and reverse ([…]; SEQ ID NO. 4) primers. The PCR cycle consisting of 95° C. for 30 seconds, 50° C. for 30 seconds, and 72° C. for 30 seconds was repeated 36 times for ORF 29, and 28 times for β2M. Both set of primers amplify across splice junction and the sizes (in bp) of the expected products are: ORF 29 (cDNA—399, DNA—3650) and β2M (cDNA—301, DNA—2178).

[13] = system: HIV-1 LTR of subtype C in LGIT cells; assay: HIV-1 LTR induction, GFP in LGIT cells, LTR subtype C; conditions: 24 hours; ERK-dependent (with or without U0126 10 μM)
[14] = system: KSHV RTA in JSC-1 PLuc cells; format: cell-based
[15] = system: HIV-1 LTR of subtype A/G in LGIT cells; assay: HIV-1 LTR induction, GFP in LGIT cells, LTR subtype A/G; conditions: 24 hours; ERK-dependent (with or without U0126 10 μM)
[16] = system: KSHV RTA in BCBL-1 PLuc cells; format: cell-based
[17] = system: HIV-1 LTR of subtype A in LGIT cells; assay: HIV-1 LTR induction, GFP in LGIT cells, LTR subtype A; conditions: 24 hours; ERK-dependent (with or without U0126 10 μM)
[18] = system: KSHV (rKSHV.219) in JSC-1 cells; format: cell-based

Nc1nc(O)c2ncn(COC(CO)CO)c2n1 [GCV, ganciclovir]
effect of GCV alone on JSC-1 proliferation ([1]; DMSO 24 h, then GCV 20 μM or 100 μM, 24, 48, 72 h): no detrimental effect

CCCC(=O)[O-].[Na+] [SB, sodium butyrate]
KSHV RTA induction and induction kinetics (western blot) [2]: delayed-kinetics

CC[C@]1(O)C[C@@H]2CN(CCc3c([nH]c4ccccc34)[C@@](C(=O)OC)(c3cc4c(cc3OC)N(C)[C@H]3[C@@](O)(C(=O)OC)[C@H](OC(C)=O)[C@]5(CC)C=CCN6CC[C@]43[C@@H]65)C2)C1 [vinblastine]
HIV-1 LTR induction by other antimicrotubule agents ([3]; genistein 100 μM): can induce
KSHV RTA induction by other antimicrotubule agents [4]: can induce

N#CC(=C(/N)Sc1ccccc1N)/C(C#N)=C(\N)Sc1ccccc1N [U0126]
cell viability (trypan blue exclusion) [5]: no significant effect on cell viability
effect of ERK inhibitor on LTR induction by 15026 (TAR RNA) ([6]; U0126 10 μM): inhibited 15026 activity
effect of ERK inhibitor on LTR induction by 15026 (TAR RNA) ([7]; U0126 10 μM): inhibited 15026 activity
effect of ERK inhibitor on LTR induction by 15026 (GFP) ([3]; U0126 10 μM, 15026 4 μM): inhibited 15026 activity

COc1ccc(-c2csc3c2-n2cccc2C3=O)cc1 [UCLB-15026]
IC50 [8]: 2.9 µM
cell cycle effect [9]: accumulated in the G2/M phases of cell cycle
effect on microtubule network (anti-tubulin immunofluorescence) [10]: disrupts microtubule network
TAR RNA copies compared with DMSO, three PBMC cultures [11]: higher TAR RNA copies in two out of three PBMC cultures
TAR RNA copies compared with DMSO, volunteer 1 ([11]; PBMC culture): about 5 fold
TAR RNA copies compared with DMSO, volunteer 2 ([11]; PBMC culture): about 200 fold
HIV-1 LTR activity (TAR RNA expression) [6]: induced LTR activity
expression of KSHV late gene ORF 29 [12]: dose-dependent expression
GFP expression driven by LTR of subtype C [13]: induced GFP expression
GCV cytotoxicity after pre-treatment with compound [1]: enhanced GCV cytotoxicity
RTA expression (% RLU normalized to TPA control/10^5 cells) [14]: activate RTA expression
GFP expression driven by LTR of subtype A/G [15]: induced GFP expression
RTA induction (% RLU normalized to TPA control/10^5 cells) [16]: induced RTA
GFP expression driven by LTR of subtype A [17]: induced GFP expression
HIV-1 LTR activity (TAR RNA expression) [7]: induced LTR activity
HIV-1 LTR activity (GFP expression) ([3]; 15026 4 μM, 24 hours): induced LTR activity
LTR-mediated GFP expression ([3]; UCLB-15026 at different concentrations, 24 or 40 h): substantially induced
KSHV reactivation (% YFP-positive cells normalized to TPA control) [4]: reactivated KSHV to similar levels
concentration range of half their maximal activities (KSHV reactivation) [4]: nanomolar range

O=c1c(-c2ccc(O)cc2)coc2cc(O)cc(O)c12 [genistein]
HIV-1 LTR activity (% GFP-positive cells normalized to TPA) ([3]; genistein 100 μM, 24 h post-treatment): induction of HIV-1 LTR activity
HIV-1 LTR induction by other antimicrotubule agents ([3]; genistein 100 μM): can induce
KSHV RTA induction by other antimicrotubule agents [4]: can induce
KSHV lytic cycle induction (% YFP-positive cells normalized to TPA) [4]: can reactivate KSHV

O=S(=O)(NCCNC/C=C/c1ccc(Br)cc1)c1cccc2cnccc12 [H89]
reduction of HIV LTR induction by 15026 compared to DMSO control [3]: 80%
reduction of KSHV RTA induction by 15026 compared to DMSO control ([4]; 15026 0.8 μM): 35%

CC(=O)O[C@H]1C(=O)[C@@]2(C)[C@H]([C@H](OC(=O)c3ccccc3)[C@]3(O)C[C@H](OC(=O)[C@H](O)[C@@H](NC(=O)c4ccccc4)c4ccccc4)C(C)=C1C3(C)C)[C@]1(OC(C)=O)CO[C@@H]1C[C@@H]2O [taxol, paclitaxel]
expression of KSHV late gene ORF 29 [12]: dose-dependent expression
GCV cytotoxicity after pre-treatment with compound [1]: small but statistically significant increase in cell cytotoxicity
RTA expression (% RLU normalized to TPA control/10^5 cells) [14]: activate RTA expression
RTA induction (% RLU normalized to TPA control/10^5 cells) [16]: induced RTA
HIV-1 LTR induction by other antimicrotubule agents ([3]; genistein 100 μM): induce transcriptional activities
KSHV reactivation (% YFP-positive cells normalized to TPA control) [4]: reactivated KSHV to similar levels
concentration range of half their maximal activities (KSHV reactivation) [4]: nanomolar range

Nc1ncnc2c1ncn2[C@@H]1O[C@@H]2COP(O)(=S)O[C@H]2[C@H]1O (some centres unmarked) [Rp-cAMP]
reduction of HIV LTR induction by 15026 compared to DMSO control [3]: about 40%

CCCCCCCCCCCCCC(=O)O[C@@H]1[C@@H](C)[C@@]2(O)[C@@H](C=C(CO)C[C@]3(O)C(=O)C(C)=C[C@@H]23)[C@@H]2C(C)(C)[C@]12OC(C)=O [TPA, 12-O-tetradecanoyl-phorbol-13-acetate]
% RFP-positive cells [18]: −1.8%
KSHV RTA induction and induction kinetics (western blot) [2]: immediate-kinetics
exposure required for KSHV induction [2]: < 1 h
